Source: patent EP2812315B1, “PYRROLIC DERIVATIVES, PROCESSES FOR PREPARING THE SAME AND THEIR USES AS A DRUG” (Universite Joseph Fourier, priority 2012, dated 2013)
Values after ≈ are worked out from the molar mass of the structure shown. Where two headings read alike, the source gives them in different places.

Columns and labels:
Assay type in all cases: cell-based
[1] = system: Acinetobacter baumanii ATCC 19606; assay: MIC determination, microdilution method (CLSI M07-A8); details: Acinetobacter baumannii
Description: (§1) The microdilution method recommended by the Clinical and Laboratory Standard Institute [M07-A8, Vol.29, N°2] was used. The activity of pyrrolic compounds was tested against 29 bacterial strains belonging to 17 different species and 12 different genera (Staphylococcus, Streptococcus, Enterococcus, […], Bacillus, Haetttophilus, Escherichia, Klebsiella, Enterobacter, Serratia, Pseudomonas, and Acinetobacter). Bacterial inocula were prepared in Mueller Hinton broth (MH2, bioMérieux, Marcy L'Etoile, France), supplemented with 10% sheep blood for fastidious species (i.e., Streptococcus pneumoniae and Haemophilus influenzae). They were dispensed in 96 well microtiter plates (5 x 10^5 CFU/mL of final inoculum). Pyrrolic compounds were added to the wells as to obtain two-fold serial concentrations (0.25-64 mg/L). Plates were incubated at 37°C, in 5% CO2 enriched atmosphere for fastidious species only. MICs were read after 18 hours incubation of cultures, and corresponded to the minimum pyrrolic compound concentration that allowed complete visual growth inhibition of bacteria. Drug-free cultures served as growth controls. Cultures receiving gentamicine, ciprofloxacine or cefotaxime served as positive controls.

[2] = system: Pseudomonas aeruginosa CIP 5933; assay: as above
Description: as §1

[3] = system: Klebsiella pneumoniae ATCC 35657; assay: as above
Description: as §1

[4] = system: Staphylococcus epidermidis ATCC 12228; assay: as above
Description: as §1

[5] = system: Escherichia coli ATCC 25922; assay: as above
Description: as §1

[6] = system: Serratia marcescens CIP 103551; assay: as above
Description: as §1

[7] = system: Enterobacter cloacae ATCC13047; assay: as above
Description: as §1

[8] = system: Staphylococcus aureus ATCC 25923; assay: as above
Description: as §1

[9] = system: Staphylococcus aureus ATCC 29213; assay: as above
Description: as §1

[10] = system: HCT116 (human colon tumor); assay: In vitro cytotoxicity; details: HCT-116, 10^-5 M in DMSO, triplicate, read-out: % of cellular growth inhibition
Description: (§2) In vitro cytotoxicity was assayed on three cell lines - KB (human mouth carcinoma), MCR5 (human lung fibroblast) and HCT116 (human colon tumor). Results are presented in table III as % of cellular growth inhibition in presence of 10^-5 M and 10^-6 M of the tested bis-pyrrolic derivatives in DMSO (triplicate).

[11] = system: KB (human mouth carcinoma); assay: In vitro cytotoxicity; details: 10^-5 M in DMSO, triplicate, read-out: % of cellular growth inhibition
Description: as §2

[12] = system: MRC5; assay: In vitro cytotoxicity; details: MRC5 (human lung fibroblast); 10^-5 M in DMSO; triplicate; read-out: % of cellular growth inhibition
Description: as §2

[13] = system: Staphylococcus epidermidis CIP 81.55; assay: MIC determination, microdilution method (CLSI M07-A8); details: CIP81, 5 x 10^5 CFU/mL, 18 hours incubation
Description: as §1

[14] = system: Streptococcus agalactiae (group B) ATCC 12400; assay: as above; details: ATCC12400, 18 hours incubation
Description: as §1

[15] = system: Staphylococcus epidermidis CIP 103627; assay: as above; details: CIP103627, 5 x 10^5 CFU/mL, 18 hours incubation
Description: as §1

[16] = system: Bacillus subtilis CIP 5262; assay: as above; details: CIP5262, 18 hours incubation
Description: as §1

[17] = system: Streptococcus pneumoniae ATCC 49619; assay: as above; details: ATCC49619, 10% sheep blood, 5% CO2, 18 hours incubation
Description: as §1

[18] = system: Staphylococcus aureus ATCC 6538; assay: as above; details: ATCC6538, 5 x 10^5 CFU/mL, 18 hours incubation
Description: as §1

[19] = system: Haemophilus influenzae ATCC 49766; assay: as above; details: ATCC49766, 10% sheep blood, 5% CO2, 18 hours incubation
Description: as §1

[20] = system: Enterococcus faecalis ATCC 29212; assay: as above; details: ATCC29212, 18 hours incubation
Description: as §1

[21] = system: Listeria innocua CIP 80.11; assay: as above; details: CIP80, 18 hours incubation
Description: as §1

[22] = system: Staphylococcus aureus SA-1199B; assay: as above; details: SA1199B, 18 h
Description: as §1

[23] = system: Streptococcus pneumoniae ATCC 6303; assay: as above; details: ATCC6303, 10% sheep blood, 5% CO2, 18 hours incubation
Description: as §1

[24] = system: Staphylococcus aureus ATCC 106414 (VISA); assay: as above; details: 5 x 10^5 CFU/mL, 18 hours incubation
Description: as §1

[25] = system: Staphylococcus aureus CIP 65.6; assay: as above; details: CIP65, 5 x 10^5 CFU/mL, 18 hours incubation
Description: as §1

[26] = system: Enterococcus faecium CIP 54.32; assay: as above; details: CIP54, 18 hours incubation
Description: as §1

[27] = system: Staphylococcus aureus CIP 103428; assay: as above; details: CIP103428, 5 x 10^5 CFU/mL, 18 hours incubation
Description: as §1

[28] = system: Staphylococcus aureus CIP 65.25 (MRSA); assay: as above; details: 5 x 10^5 CFU/mL, 18 hours incubation
Description: as §1

[29] = system: Streptococcus pyogenes (group A) CIP 104226; assay: as above; details: CIP104226, 18 hours incubation
Description: as §1

[30] = system: Staphylococcus aureus ATCC 9144; assay: as above; details: ATCC9144, 5 x 10^5 CFU/mL, 18 hours incubation
Description: as §1

[31] = system: Streptococcus mitis CIP 103335; assay: as above; details: CIP103335, 18 hours incubation
Description: as §1

[32] = system: Staphylococcus aureus ATCC 33592 (MRSA); assay: as above; details: 5 x 10^5 CFU/mL, 18 hours incubation
Description: as §1

[33] = ATCC19606, Acinetobacter baumanii ATCC 19606, 18 hours incubation, read-out: MIC
[34] = CIP5933, Pseudomonas aeruginosa CIP 5933, 18 hours incubation, read-out: MIC
[35] = ATCC35657, Klebsiella pneumoniae ATCC 35657, 18 hours incubation, read-out: MIC
[36] = ATCC12228, Staphylococcus epidermidis ATCC 12228, 5 x 10^5 CFU/mL, 18 hours incubation, read-out: MIC
[37] = ATCC25922, Escherichia coli ATCC 25922, 18 hours incubation, read-out: MIC
[38] = CIP103551, Serratia marcescens CIP 103551, 18 hours incubation, read-out: MIC
[39] = Enterobacter cloacae ATCC13047, 18 hours incubation, read-out: MIC
[40] = ATCC25923, Staphylococcus aureus ATCC 25923, 5 x 10^5 CFU/mL, 18 hours incubation, read-out: MIC
[41] = ATCC29213, Staphylococcus aureus ATCC 29213, 5 x 10^5 CFU/mL, 18 hours incubation, read-out: MIC

Row | MIC [1, 33] [µg/mL] | MIC [2, 34] [µg/mL] | MIC [3, 35] [µg/mL] | MIC [4, 36] [µg/mL] | MIC [5, 37] [µg/mL] | MIC [6, 38] [µg/mL] | MIC [7, 39] [µg/mL] | MIC [8, 40] [µg/mL] | MIC [9, 41] [µg/mL] | SMILES | inhibition at 10 µM [10] [%] | inhibition at 10 µM [11] [%] | inhibition at 10 µM [12] [%] | MIC [13] [µg/mL] | MIC [15] [µg/mL] | MIC [18] [µg/mL] | MIC [24] [µg/mL] | MIC [25] [µg/mL] | MIC [27] [µg/mL] | MIC [28] [µg/mL] | MIC [30] [µg/mL] | also measured
1 |  |  |  |  |  |  |  |  |  | CC(=O)c1c(C)[nH]c(C(c2ccccc2O)c2[nH]c(C)c(C(C)=O)c2C)c1C [3m] | 0 | 6 ± 10 | 1 ± 17 |  |  |  |  |  |  |  |  | MIC ([1]; ATCC19606, 18 h): > 32 µg/mL; MIC ([2]; Pseudomonas aeruginosa, CIP5933, 18 h): > 32 µg/mL; MIC ([3]; Klebsiella pneumoniae, ATCC35657, 18 h): > 32 µg/mL; MIC ([4]; Staphylococcus epidermidis, ATCC12228, 18 h): > 128 µg/mL; MIC ([5]; Escherichia coli, ATCC25922, 18 h): > 32 µg/mL; MIC ([6]; Serratia marcescens, CIP103551, 18 h): > 32 µg/mL; MIC ([7]; Enterobacter cloacae, ATCC13047, 18 h): > 32 µg/mL; MIC ([8]; Staphylococcus aureus, ATCC25923, 18 h): 8 µg/mL (≈ 21.1 µM); MIC ([9]; Staphylococcus aureus, ATCC29213, 18 h): 4 µg/mL (≈ 10.6 µM)
2 | > 32 | > 32 | > 32 | > 128 | > 32 | > 32 | > 32 | 8 (≈ 16.4 µM) | 4 (≈ 8.19 µM) | CC(=O)c1c(C)[nH]c(C(c2ccccc2I)c2[nH]c(C)c(C(C)=O)c2C)c1C [3k] | 0 | 20 ± 8 | 3 ± 5 |  |  |  |  |  |  |  |  | 
3 | > 32 | > 32 | > 32 | > 128 | > 32 | > 32 | > 32 | 4 (≈ 10.9 µM) | 8 (≈ 21.7 µM) | CC(=O)c1c(C)[nH]c(C(c2cccs2)c2[nH]c(C)c(C(C)=O)c2C)c1C [3l] | 11 ± 7 | 9 ± 5 | 6 ± 3 |  |  |  |  |  |  |  |  | 
4 | > 128 | > 128 | > 128 | > 128 | > 128 | > 128 | > 128 | > 32 | 8 (≈ 19.6 µM) | CC(=O)c1c(C)[nH]c(C(c2ccc([N+](=O)[O-])cc2)c2[nH]c(C)c(C(C)=O)c2C)c1C [3d] | 0 | 0 | 0 | > 128 | > 128 | > 32 | 8 (≈ 19.6 µM) | 16 (≈ 39.3 µM) | > 32 | 8 (≈ 19.6 µM) | > 32 | MIC [32]: > 32 µg/mL

Row | SMILES | MIC [1, 33] [µg/mL] | MIC [2, 34] [µg/mL] | MIC [3, 35] [µg/mL] | MIC [4, 36] [µg/mL] | MIC [5, 37] [µg/mL] | MIC [6, 38] [µg/mL] | MIC [7, 39] [µg/mL] | MIC [8, 40] [µg/mL] | MIC [9, 41] [µg/mL] | inhibition at 10 µM [10] [%] | inhibition at 10 µM [11] [%] | inhibition at 10 µM [12] [%] | MIC [13] [µg/mL] | MIC [15] [µg/mL] | MIC [18] [µg/mL] | MIC [24] [µg/mL] | MIC [25] [µg/mL] | MIC [27] [µg/mL] | MIC [28] [µg/mL] | MIC [30] [µg/mL] | also measured
5 | CCC(c1[nH]c(C)c(C(C)=O)c1C)c1[nH]c(C)c(C(C)=O)c1C [3a] | > 128 | > 128 | > 128 | > 128 | > 128 | > 128 | > 128 | 32 (≈ 102 µM) | 32 (≈ 102 µM) | 41 | 30 |  | > 128 | > 128 | 16 (≈ 50.9 µM) | 32 (≈ 102 µM) | 32 (≈ 102 µM) | 32 (≈ 102 µM) | 16 (≈ 50.9 µM) | > 128 | MIC [14]: > 128 µg/mL; MIC [16]: > 128 µg/mL; MIC [17]: > 128 µg/mL; MIC [19]: > 128 µg/mL; MIC [20]: > 128 µg/mL; MIC [21]: > 128 µg/mL; MIC [22]: 32 µg/mL (≈ 102 µM); MIC [23]: > 128 µg/mL; MIC [26]: > 128 µg/mL; MIC [29]: > 128 µg/mL; MIC [31]: > 128 µg/mL; MIC [32]: 16 µg/mL (≈ 50.9 µM)
6 | CC(=O)c1c(C)[nH]c(C(c2ccccc2)c2[nH]c(C)c(C(C)=O)c2C)c1C [3b] | > 128 | > 128 | > 128 | > 128 | > 128 | > 128 | > 128 | 4 (≈ 11 µM) | 4 (≈ 11 µM) | 43 | 32 |  | > 128 | > 128 | 4 (≈ 11 µM) | 4 (≈ 11 µM) | 4 (≈ 11 µM) | 4 (≈ 11 µM) | 8 (≈ 22.1 µM) | 8 (≈ 22.1 µM) | MIC [14]: > 128 µg/mL; MIC [16]: > 128 µg/mL; MIC [17]: > 128 µg/mL; MIC [19]: > 128 µg/mL; MIC [20]: > 128 µg/mL; MIC [21]: > 128 µg/mL; MIC [22]: 8 µg/mL (≈ 22.1 µM); MIC [23]: > 128 µg/mL; MIC [26]: > 128 µg/mL; MIC [29]: > 128 µg/mL; MIC [31]: > 128 µg/mL; MIC [32]: 8 µg/mL (≈ 22.1 µM)
